Reference: patent publication US20250043349A1, “DEORPHANIZING ODORS USING SINGLE CELL SEQUENCING” (PRESIDENT AND FELLOWS OF HARVARD COLLEGE, priority 2021, published 2025)
Each block holds one molecule with its values, some of them ahead of it.

Tests used:
M72 (Olfr160) = assay: Act-Seq activation score in OSNs expressing M72; type: in vivo, mouse; conditions: compared with acetophenone
Procedure: Act-Seq (Wu et al., 2017) was performed following odor exposure to quantify odor-evoked responses in each OSN subtype (defined by their expressed OR) across the entire OR repertoire. Mice were habituated to a reversed light cycle for at least for 1 week before odor exposure, transferred to a new disposable cage with regular bedding/food and kept overnight in a satellite animal facility. On the experimental day, each mouse was first transferred to a new empty disposable cage during the dark cycle and habituated for 20 minutes. Empty cages were used to avoid any activation by odorants present within the environments in which the mice were housed. Odors were added to a piece of filter paper (100 μL of odorant) in a 35 mm petri dish and a cotton ball (200 μL of odorant) and placed in each cage. […]
The remaining 169 activation genes that were also considered as HVGs often had weak loadings across multiple GEPs. […] To summarize the effects of odor activation across this set of activation genes, the TPT-expression of these activation genes were z-scored (using means and standard deviations for these genes in the control, acetophenone, and octanal datasets, identified by subsampling equal numbers of cells across all ORs expressed in at least 6 cells across 100 restarts). […] PCA was performed on the differences in z-scored activation gene expression between control and odor conditions. […]

M72 receptor = conditions: Arneodo et al. 2018; Zhang et al. 2012; cited from earlier work
OR10A6 [1] = target: T1, OR10A6 (Homo sapiens, UniProt Q8NH74); assay: In vivo human act-seq: nasal swab after 1 hour exposure, IEG expression in OSNs; set-up: endogenous in cells; host or cells: olfactory sensory neurons of a human subject, exposed in vivo and collected by nasal swab; conditions: human subject
T1 sequence (Q8NH74 1-314): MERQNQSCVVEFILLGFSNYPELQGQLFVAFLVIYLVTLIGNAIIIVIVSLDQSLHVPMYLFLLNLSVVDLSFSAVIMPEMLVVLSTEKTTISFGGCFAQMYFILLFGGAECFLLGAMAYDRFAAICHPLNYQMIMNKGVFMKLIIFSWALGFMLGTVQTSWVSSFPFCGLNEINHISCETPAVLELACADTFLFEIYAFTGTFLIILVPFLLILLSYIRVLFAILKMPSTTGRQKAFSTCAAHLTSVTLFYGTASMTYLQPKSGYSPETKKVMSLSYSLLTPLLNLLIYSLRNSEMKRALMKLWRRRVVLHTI
Procedure: FIG. 16A-16D show in vivo human act-seq data. FIG. 16A depicts a UMAP plot showing olfactory cells obtained from a human subject using a nasal swab after 1 hour exposure to 2-phenylethanol, which smells like rose oil. 1 hour exposure is performed by asking the subject to sniff the odor vial every 2-5 minutes. All major olfactory cell types were identified. OSN: olfactory sensory neuron lineage (progenitors and immature or mature neurons). SUS: sustentacular cells. HBC: horizontal basal cell. MV: microvillar cells. BG: Bowman's gland cells. FIG. 16B examines total count normalized expression of GFY gene (a mature OSN marker) in the UMAP plot. FIG. 16C examines total count normalized expression of immediate early genes (IEG) in OSNs that expressed odorant receptors (OR). […] Horizontal bars indicate mean across cells.

OR10A6 [2] = target: T1, OR10A6; conditions: previous study (doi.org/10.3390/molecules25204743); cited from earlier work
olfactory bulb glomeruli = assay: In vivo olfactory bulb imaging of OSN axons (GCaMP glomerular odor responses); set-up: species or system mouse; conditions: odor panel, anesthetized mice
Procedure: All surgical procedures were performed in accordance with the guidelines provided by IACUC at Harvard Medical School. Prior to surgery. 4-6 weeks old Omp-IRES-Cre: Ai951) (GCaMP6f) mice, were subcutaneously injected with the analgesic Buprenorphine-SR (1 mg/kg) and anesthetized 1-2 hours later with isoflurane (3% induction. 1-2% maintenance). The skin overlying the left olfactory bulb was retracted and the underlying periosteum was scraped off with a scalpel. The skull was subsequently cleaned with saline and allowed to dry. A 2.5 mm circular craniotomy was made using a biopsy punch (Integra Miltex) taking care not to damage the underlying dura. Gelfoam saturated with cold saline was placed over the craniotomy to reduce swelling and suppress minor bleeds. A custom cranial window was constructed using two circular coverslips (Warner Instruments, 3 mm. #1 thickness). […]
Chronic imaging of the dorsal surface of the olfactory bulb was performed after recovery from the surgery (1-2 weeks) under ketamine (100 mg/kg) and xylazine (10 mg/kg) induced anesthesia, to specifically isolate responses in OSN axons with less modulation from local interneurons and long-range cortical feedback. Depth of anesthesia was assessed every 15 minutes via the toc-pinch reflex and intraperitoneal ketamine was administered at 1/3 concentration of the induction dose for anesthesia maintenance. […]

[3] = test system: OSN subtypes (odorant receptors, ORs); assay: Act-Seq: scSeq of olfactory epithelium after two-hour odor exposure (IEG expression, activated ORs, activation score); type: in vivo, mouse
Procedure: Act-Seq (Wu et al., 2017) was performed following odor exposure to quantify odor-evoked responses in each OSN subtype (defined by their expressed OR) across the entire OR repertoire. Mice were habituated to a reversed light cycle for at least for 1 week before odor exposure, transferred to a new disposable cage with regular bedding/food and kept overnight in a satellite animal facility. On the experimental day, each mouse was first transferred to a new empty disposable cage during the dark cycle and habituated for 20 minutes. Empty cages were used to avoid any activation by odorants present within the environments in which the mice were housed. Odors were added to a piece of filter paper (100 μL of odorant) in a 35 mm petri dish and a cotton ball (200 μL of odorant) and placed in each cage. After 2 hours, mice were euthanized, and dissociation was performed as described below. Odors used in this study were as follows. Dipropylene glycol (DPG, control solvent), and 10% of acetophenone, octanal, 2-hydroxy acetophenone, 4-methyl acetophenone, and methyl salicylate. As a control, mice were exposed to DPG alone for 30 min. This control condition was used to account for any drift in transcriptomes during the overnight housing and habituation periods prior to odor exposure and designed to capture the transcriptome in the state it would have been in the odor-exposed animals prior to odor exposure. […] Act-Seq was also performed using lower concentrations of acetophenone (1.0, 0.1, 0.01%) and 2-hydroxy acetophenone (0.1%, 0.01%). All odor dilutions were made with DPG, and all odors and DPG were obtained from Sigma. To assess the persistence of any transcriptional changes observed as a result of odor exposure, a cohort of mice was exposed to acetophenone or DPG for 2 hours, transferred to new clean regular home cages, and subjected to scSeq after an additional 22 hours.
The main olfactory epithelium was dissected in Earle's Balanced Salt Solution (EBSS, pre-treated with carbogen for at least 5 minutes before each use, Worthington), then transferred to a round-bottomed glass dish containing 750 μL of papain solution (one vial of Papain (Worthington) dissolved in 5 mL of EBSS and then equilibrated 10 minutes at 37° C.) and 100 μL of DNase solution (one vial of DNase-I (Worthington) dissolved in 500 μL of EBSS). Bone was removed from the epithelium under a dissecting microscope and the resulting epithelial tissue was placed in a 5 mL tube (Becton Dickinson) with an additional 1.75 mL of Papain solution and 200 μL of DNase-I solution and rocked gently for-60 minutes at 37° C. The tissue was then gently triturated with a 5 mL pipette 10-15 times, passed through a 40 μm cell strainer (Becton Dickinson), and washed with 1 mL of Hibernate-A medium containing 10% Fetal Bovine Serum (FBS. GIBCO). Filtered cells were transferred to a new 5 mL tube and centrifuged 5 minutes at 300×g. The supernatant was decanted, the cells were washed once with 4 mL Hibernate-A containing 10% FBS and resuspended in 1 mL Hibernate-A containing 0.2% FBS. Importantly, each of the solutions above contained transcriptional inhibitors (5 μg/mL of Actinomycin D, 10 μg/mL of Anisomycin and 10 μM of Triptolide, all obtained from Sigma) for all experiments, especially the Act-Seq experiments, except where noted.
OSN subtypes that were responsive to odorants were identified via a two-step process. First, individual OSNs (as defined by the expressed OR) were determined as activated based on their mean z-scored immediate early genes (IEG) expression. A set of 10 IEGs were used (Btg2, Egr1, Fos, Fosb, Gm13889, Junb, Nr4a1, Nr4a2, Pcdh10, and Srxn1). […] The set of 10 IEGs was used since even though all of the IEGs were specific to acute activation by odors, they were still only detected in a minority of cells due to the sparse nature of scSeq. […]

Molecule: 2-hydroxyacetophenone
activation scores in OSNs expressing M72 (M72 (Olfr160)): higher activation scores than acetophenone
binding to the M72 receptor relative to acetophenone (M72 receptor): binds more strongly to the M72 receptor

mean total count normalized expression of 9 IEGs in OSNs expressing OR10A6 vs other ORs (OR10A6 [1]): much higher IEG expression
Molecule: OCCc1ccccc1 [2-phenylethanol]
activation of OR10A6 in vitro (OR10A6 [2]): activated

Molecule: CCCCC=O [Pentanal]
breadth of responses across the population of glomeruli (olfactory bulb glomeruli): broadest responses across the population of glomeruli

z-scored expression of 10 immediate early genes (IEGs) for each OSN subtype, odor vs control ([3]; odor vs control (DPG) conditions): higher in the odor conditions
Molecule: CCCCCCCC=O [octanal]
overlap between ORs activated by ACE and OCT, odds ratio ([3]; Fisher's exact test, overlap at chance levels): 1.42
